The text below walks through data of ChEMBL document CHEMBL3351308, “Allosteric modulation of the G protein-coupled US28 receptor of human cytomegalovirus: are the small-weight inverse agonist of US28 'camouflaged' agonists?” (Bioorg Med Chem Lett, 2014).

Where a chain is given by its changes, count along the chain named. Active and inactive are the calls of the source. The calls are words filed in the database; no cut-off is given here.

In the first assay the target is T1, G-protein coupled receptor homolog US28 (Human cytomegalovirus (strain AD169) (HHV-5) (Human herpesvirus 5), UniProt P69332).
T1 sequence (P69332 whole entry): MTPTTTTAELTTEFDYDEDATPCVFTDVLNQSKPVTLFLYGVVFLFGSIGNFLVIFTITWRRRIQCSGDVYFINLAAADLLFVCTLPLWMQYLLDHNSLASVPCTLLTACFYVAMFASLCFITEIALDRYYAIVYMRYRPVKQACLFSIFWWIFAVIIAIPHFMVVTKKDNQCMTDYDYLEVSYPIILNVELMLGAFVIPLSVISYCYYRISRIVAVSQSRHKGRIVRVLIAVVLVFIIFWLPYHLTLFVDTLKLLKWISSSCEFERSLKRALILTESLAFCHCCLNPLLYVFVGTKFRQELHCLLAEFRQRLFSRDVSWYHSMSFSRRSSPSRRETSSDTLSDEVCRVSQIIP
Description: Allosteric modulatory activity at FLAG-tagged wild type human cytomegalovirus US28 receptor expressed in HEK293T cells by PathDetectElk1 assay. Format: cell-based, Human betaherpesvirus 5, HEK-293T.
Details: not given
Compound `CC1(CO)Cc2ccccc2C(=O)N1c1ccccc1` (stereo not given) had an EC50 of 4.4 µM.

Consider `CC1(CCO)Cc2ccccc2C(=O)N1c1ccccc1` (stereo not given), for which a half-maximal effect (EC50) was put at 1 µM.

In turn, `N#CC(CCCN1CCC(O)(c2ccc(Cl)cc2)CC1)(c1ccccc1)c1ccccc1` [BERLEX COMPOUND] had a concentration for a half-maximal effect (EC50) of 4.5 µM.

Compound `CSc1ccc2c(c1)C(N1CCN(C)CC1)Cc1ccccc1S2` (stereo not given) [METITEPINE] returned an EC50 of 0.35 µM.

As for `CCCCCCCCCC(=O)N(CCN(C)C)CC1(C)Cc2ccccc2C(=O)N1` (stereo not given), the EC50 was determined as 1.5 µM.

In the case of `CC1(COC(=O)Cc2ccccc2)Cc2ccccc2CN1C(=O)Cc1ccccc1` (stereo not given), the EC50 is 3.4 µM.

A further assay concerns the target T2, G-protein coupled receptor homolog US28 (Human cytomegalovirus (strain AD169) (HHV-5) (Human herpesvirus 5)) (UniProt P69332).
T2 sequence (whole entry): T1 sequence (P69332 whole entry)
Kind of assay: Allosteric modulatory activity at FLAG-tagged wild type human cytomegalovirus US28 receptor expressed in HEK293T cells by PathDetectElk1 assay relative to basal level. In kind it is cell-based. Further details: concentration or dose not given beside the values. To be noted: Human betaherpesvirus 5; HEK-293T.
Take `CC1(CO)Cc2ccccc2C(=O)N1c1ccccc1` (stereo not given): the Efficacy was determined as 41%.

With `CC1(CCO)Cc2ccccc2C(=O)N1c1ccccc1` (stereo not given), the Efficacy was -14%.

For `N#CC(CCCN1CCC(O)(c2ccc(Cl)cc2)CC1)(c1ccccc1)c1ccccc1` [BERLEX COMPOUND], the Efficacy is -22%.

For `CSc1ccc2c(c1)C(N1CCN(C)CC1)Cc1ccccc1S2` (stereo not given) [METITEPINE], the Efficacy is 10%.

For `CCCCCCCCCC(=O)N(CCN(C)C)CC1(C)Cc2ccccc2C(=O)N1` (stereo not given), the Efficacy was -20%.

With `CC1(COC(=O)Cc2ccccc2)Cc2ccccc2CN1C(=O)Cc1ccccc1` (stereo not given), the Efficacy was -37%.

The target in another assay is G protein-coupled receptor (Human betaherpesvirus 5, UniProt Q9IP65). Kind of assay: Allosteric modulatory activity at FLAG-tagged human cytomegalovirus US28 receptor delta300 mutant expressed in HEK293T cells by PathDetectElk1 assay. Particulars: hek-293t. Format: cell-based.
Chain of G protein-coupled receptor (Q9IP65 1-354): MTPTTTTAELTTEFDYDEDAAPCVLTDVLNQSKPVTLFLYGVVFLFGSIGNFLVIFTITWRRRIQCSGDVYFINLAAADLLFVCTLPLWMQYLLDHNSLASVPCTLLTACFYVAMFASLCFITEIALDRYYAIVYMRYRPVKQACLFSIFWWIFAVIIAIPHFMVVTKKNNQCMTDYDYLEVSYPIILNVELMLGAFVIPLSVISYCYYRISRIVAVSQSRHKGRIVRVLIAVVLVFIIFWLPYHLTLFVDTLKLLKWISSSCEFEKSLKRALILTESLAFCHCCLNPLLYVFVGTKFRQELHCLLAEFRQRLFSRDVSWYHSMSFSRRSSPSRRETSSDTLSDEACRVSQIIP
`CC1(CO)Cc2ccccc2C(=O)N1c1ccccc1` (stereo not given) displayed an EC50 of 0.93 µM and a negative logarithm of the EC50 (pEC50) of 6.03.

`CC1(CCO)Cc2ccccc2C(=O)N1c1ccccc1` (stereo not given) registered an EC50 of 3.1 µM and a pEC50 of 5.51.

Regarding `N#CC(CCCN1CCC(O)(c2ccc(Cl)cc2)CC1)(c1ccccc1)c1ccccc1` [BERLEX COMPOUND], the EC50 was > 10 µM and the negative-log EC50 (pEC50) is on record as < 5.

`CSc1ccc2c(c1)C(N1CCN(C)CC1)Cc1ccccc1S2` (stereo not given) [METITEPINE] gave an EC50 of 0.33 µM and a pEC50 of 6.48.

For `CCCCCCCCCC(=O)N(CCN(C)C)CC1(C)Cc2ccccc2C(=O)N1` (stereo not given), the EC50 was > 10 µM and the negative-log EC50 (pEC50) was < 5.

`CC1(COC(=O)Cc2ccccc2)Cc2ccccc2CN1C(=O)Cc1ccccc1` (stereo not given): the concentration for a half-maximal effect (EC50) stood at 2.5 µM and the pEC50 is on record as 5.59.

The target in a further assay is T3, G protein-coupled receptor (Human betaherpesvirus 5) (UniProt Q9IP65).
T3 sequence (whole entry): T1 sequence (P69332 whole entry) with T21A, F25L, D170N, R267K, V346A
Description: Allosteric modulatory activity at FLAG-tagged human cytomegalovirus US28 receptor delta300 mutant expressed in HEK293T cells by PathDetectElk1 assay relative to basal level. To be noted: HEK-293T. Format: cell-based.
Regarding `CC1(CO)Cc2ccccc2C(=O)N1c1ccccc1` (stereo not given), the Efficacy was found to be 27%.

As to `CC1(CCO)Cc2ccccc2C(=O)N1c1ccccc1` (stereo not given), the Efficacy is -21%.

`N#CC(CCCN1CCC(O)(c2ccc(Cl)cc2)CC1)(c1ccccc1)c1ccccc1` [BERLEX COMPOUND]: the Efficacy was > 180%.

As for `CSc1ccc2c(c1)C(N1CCN(C)CC1)Cc1ccccc1S2` (stereo not given) [METITEPINE], the Efficacy is 110%.

Take `CCCCCCCCCC(=O)N(CCN(C)C)CC1(C)Cc2ccccc2C(=O)N1` (stereo not given): the Efficacy is > 180%.

Consider `CC1(COC(=O)Cc2ccccc2)Cc2ccccc2CN1C(=O)Cc1ccccc1` (stereo not given), for which the Efficacy was -29%.

Another assay addresses T3, G protein-coupled receptor (Human betaherpesvirus 5). Kind of assay: Allosteric modulatory activity at FLAG-tagged human cytomegalovirus US28 receptor delta300 mutant expressed in HEK293T cells assessed as reduction in CX3CL1/Fractalkine-induced response by PathDetectElk1 assay. To be noted: HEK-293T. Format: cell-based.
For `CC1(COC(=O)Cc2ccccc2)Cc2ccccc2CN1C(=O)Cc1ccccc1` (stereo not given), the Activity entry was “Dose-dependent effect”.

A further assay has the same target. Kind of assay: Effect on CX3CL1/Fractalkine binding to FLAG-tagged human cytomegalovirus US28 receptor delta300 mutant expressed in HEK293T cells. In kind it is cell-based. Particulars: HEK-293T.
Regarding `CC1(COC(=O)Cc2ccccc2)Cc2ccccc2CN1C(=O)Cc1ccccc1` (stereo not given), the outcome was inactive.

The target is the same in a further assay. Description: Allosteric modulatory activity at FLAG-tagged human cytomegalovirus US28 receptor delta300 mutant expressed in HEK293T cells at 10 uM in presence of CX3CL1/Fractalkine by PathDetectElk1 assay. In kind it is cell-based. Particulars: HEK-293T.
Consider `CC1(COC(=O)Cc2ccccc2)Cc2ccccc2CN1C(=O)Cc1ccccc1` (stereo not given), for which the result was inactive.

The target is the same in the next assay. Kind of assay: Allosteric modulatory activity at FLAG-tagged human cytomegalovirus US28 receptor delta300 mutant expressed in HEK293T cells assessed as reduction in CCL5/Rantes-induced response by PathDetectElk1 assay. In kind it is cell-based. Particulars: HEK-293T.
Consider `CC1(COC(=O)Cc2ccccc2)Cc2ccccc2CN1C(=O)Cc1ccccc1` (stereo not given), for which the result was Active.

A further assay shares this target. Description: Increase in CX3CL1/Fractalkine binding to FLAG-tagged human cytomegalovirus US28 receptor delta300 mutant expressed in HEK293T cells. In kind it is cell-based. To be noted: HEK-293T.
As to `CC1(CO)Cc2ccccc2C(=O)N1c1ccccc1` (stereo not given), the result was Active.
